Reference: US20230011168A1, “Bio-Chips and Production Method Thereof” (China Medical University, priority 2021, published 2023)

Experiments:
Assay type in all cases: cell-based
lung cancer cells = experiment: Cytotoxicity test on lung cancer cells in biochip, static vs dynamic perfusion
Excerpt: With reference to FIGS. 12A and 12B, cytotoxicity tests with 5-Fu cancer cell therapeutic drug are presented.

breast cancer cells = experiment: Cell viability of breast cancer cells in biochip; conditions: for live cancer cells (cell viability, FIG. 14): after culturing for 3 days, high concentrations
Excerpt: FIG. 14 is a validation test of cell viability of breast cancer cells treating by couples of cancer therapeutic drugs. […] By such, the present invention can be used to determine which cancer treatment drugs are effective for the patient.
FIG. 15 is an immunohistochemistry corresponded to the test result of Taxol drug in FIG. 14.

GR10 lung cancer cells = experiment: Cancer cell survival test of target drugs, GR10
[1] = test system: Hela cervical cancer cells; experiment: Biochip drug efficacy test on Hela cervical cancer cells
Excerpt: (§1) The biochip 10 can be first served as a simulation model of a drug screening for cancer. This embodiment is an example of a drug screening for candidate drugs for cervical cancer taking from a target patient. It is worth mentioning that the biochip 10 provided by the present invention, the simulated vascular channel 12 in the preferred embodiment can be used for simulating an in-vivo environment of cervical cancer or breast cancer which these cancer cells are normally metabolized from the blood vessel in real human body. However, by switching the simulated vascular channel 12 into a gas or air flow channel (simulation of human trachea), it can be used as a simulation for lung cancer as another suitable applications for the present invention.
(§2) In this embodiment, when producing the simulated vascular channel 12, the fluid containing endothelial cells will be fluxed for completely adhering, attaching and even starting to be cultured to the inner surface of the simulated vascular channel 12 at 37° C. for one day. Further, the peristaltic pump is connected to circulate as a biosystem. For a single simulated vascular channel 12, it is preferred to have a perfusion rate as 13 μL/min. […]
With reference to FIGS. 8A to 8C, in this embodiment, three different cervical cancer cells are used to perform quantitative and qualitative tests of the efficacy of different cancer therapeutic drugs. […]

[2] = test system: SiHa cervical cancer cells; experiment: Biochip drug efficacy test on SiHa cervical cancer cells; conditions: compared with 5-Fu and Lipodox
Excerpt: as §1, §2
(§3) With reference to FIGS. 8A to 8C, in this embodiment, three different cervical cancer cells are used to perform quantitative and qualitative tests of the efficacy of different cancer therapeutic drugs.

[3] = test system: CCC cervical cancer cells; experiment: Biochip drug efficacy test on CCC cervical cancer cells; conditions: compared with 5-Fu and Lipodox
Excerpt: as §1, §2, §3

Structure (SMILES): O=c1[nH]cc(F)c(=O)[nH]1 [5-Fu]
- cytotoxicity (FIG. 12A) (lung cancer cells; dynamic perfusion compared with static culture): cytotoxicity of dynamic perfusion is more remarkable
- dead cancer cells (immunohistochemistry, FIG. 12B) (lung cancer cells; high dose, dynamic culture of perfusion): dead cancer cells are increased

Structure (SMILES): N.N.[Cl][Pt][Cl] [Cisplatin]
- live cancer cells (cell viability, FIG. 14) (breast cancer cells): significantly reducing live cancer cells

Structure (SMILES): C#Cc1cccc(Nc2ncnc3cc(OCCOC)c(OCCOC)cc23)c1 [Erlotinib]
- effect on cancer cell survival (FIG. 13B) (GR10 lung cancer cells): drug resistance

Structure (SMILES): COc1cc2ncnc(Nc3ccc(F)c(Cl)c3)c2cc1OCCCN1CCOCC1 [Gefitinib]
- effect on cancer cell survival (FIG. 13B) (GR10 lung cancer cells): drug resistance

Structure (SMILES): Nc1ccn([C@@H]2O[C@H](CO)[C@@H](O)C2(F)F)c(=O)n1 [Gemcitabine]
- live cancer cells (cell viability, FIG. 14) (breast cancer cells): significantly reducing live cancer cells

Structure (SMILES): Nc1nc2[nH]cc(CCc3ccc(C(=O)N[C@@H](CCC(=O)O)C(=O)O)cc3)c2c(=O)[nH]1 [Pemetrexed]
- reaction compared with the other drugs (FIG. 14) (breast cancer cells; Taxol, Cisplatin, Gemcitabine vs Pemetrexed): These three drugs show better reaction than Pemetrexed

Structure (SMILES): CC(=O)O[C@H]1C(=O)[C@@]2(C)[C@H]([C@H](OC(=O)c3ccccc3)[C@]3(O)C[C@H](OC(=O)[C@H](O)[C@@H](NC(=O)c4ccccc4)c4ccccc4)C(C)=C1C3(C)C)[C@]1(OC(C)=O)CO[C@@H]1C[C@@H]2O [Taxol]
- cancer cell killing effect (immunohistochemistry, apoptotic cells) ([1]; 7th day): significant cancer cell killing effect
- cancer cell poisoning effect (bar diagrams, FIG. 8A) ([1]; compared with 5-Fu and Lipodox): better cancer cell poisoning effect among other two drugs
- cancer cell poisoning effect (bar diagrams, FIG. 8B) [2]: better cancer cell poisoning effect among other two drugs
- cancer cell poisoning effect (bar diagrams, FIG. 8C) [3]: better cancer cell poisoning effect among other two drugs
- dead cancer cells (immunohistochemistry, FIG. 15) (breast cancer cells): more and more dead cancer cells are shown
- live cancer cells (cell viability, FIG. 14) (breast cancer cells): significantly reducing live cancer cells
